# Laboratory results as given in patent US20200360332A1, “COMPOUND FOR USE IN THE INCREASING OF MENTAL CAPACITY” (LEIBNIZ-INSTITUT FUER NEUROBIOLOGIE (LIN) STIFTUNG DES …, priority 2017, published 2020).
# How the values were obtained:
# [1] = system: Drosophila melanogaster larvae; assay: Learning experiment E (scent/fructose reward) with Drosophila melanogaster larvae raised on feed mash containing the compound; format: in vivo; settings: for improvement in learning capability compared with FSE-20 (summary statement): Drosophila larvae, effect of FSE-20>FSE-16>>FSE-8; for learning and memory capability P vs control K (Example 2): 7.1×10^−7 M (700 nM) final concentration in feed mash
# Procedure: Depicted in FIG. 1A is an overview of a learning experiment E with Drosophila melanogaster larvae. […] One group represents the control group K, which was raised with standard feed mash, and the three other groups were each raised with different concentrations of FSE-20 (7.1×10^−8, 7.1×10^−7, and 7.1×10^−6[M] FSE-20) in the feed mash. After 5 days (arrow with “5d”), the learning experiment E was carried out. In the learning experiment E, the animals were each subjected to one of two inverse training regimens A and then subjected to a test B. The first group I was presented in training A with a first scent with the feed reward (fructose), while a second scent was presented alone (first scent+/second scent). In FIG. 1A, the first scent is depicted as a white square and the second scent as a black square. […] The second group II was trained inversely (first scent/second scent+). In test B of the learning experiment E, it was subsequently examined whether the larvae of the two groups I, II prefer the first scent or the second scent in a selection situation and thus their learning and memory capability (performance index) P was determined. Shown in FIG. 2A is an overview with the compounds used in this example as additions to the feed mash. One group of the Drosophila melanogaster larvae was the control group K, which was raised with standard feed mash. Furthermore, one group was raised with FSE-20 in a concentration of 7.1×10^−7 M in the feed mash. The other groups were raised with a concentration of 7.1×10^−7 M of the different FSE-20 derivatives in the feed mash. These FSE-20 derivatives comprise FSE-8, FSE-12, FSE-16, 4OH-ZSE-20, and DH-FSE-20. After five days (arrow with “5d”), the Drosophila melanogaster larvae were tested in the learning experiment E, as described in Example 1.
# [2] = system: older Drosophila melanogaster flies; assay: Learning experiment E with mature, older Drosophila melanogaster flies fed FSE-20; format: in vivo
# Procedure: In this experiment, the flies were divided into two groups, a control group K, which was fed with standard feed, and a test group, for which FSE-20 was added to the feed. The concentration of FSE-20in the feed was 7.1×10^−7 M. The flies were tested in a learning experiment E, corresponding to the principle of Example 1, 15 days (arrow with “15d”) after the adult animals had hatched.
# [3] = system: mice; assay: Learning experiment E in mice (conditioned fear, freezing) after intraperitoneal injection; format: in vivo; settings: 6 mg/kg i.p. prior to training
# Procedure: In order to determine the effect of FSE-20 on the learning and memory capability P in 3- to 4-month-old mice, the animals underwent intraperitoneal injection with an FSE-20 solution (6 mg/kg body weight) prior to the training A. In the learning experiment E on the next day, the animals were placed in a specific environment during the training A, while the mice were subjected at the same time to an aversive electrical stimulus (lightning symbol). Subsequently, in the first test B-1 one day later (1 d), the nonspecific fear reaction (freezing) F was measured in a neutral environment, that is, in an environment that was new for the animals. In the second test B-2, two hours (2 h) after the first test B-1, the fear reaction in the environment was measured, in that the animals were presented with the electrical stimulus during the training A (conditioned environment).
# Shown in FIG. 4B is a graphic illustration that summarizes the results of the learning experiment E on mice. […] The first span of time of the second test comprises the 1st-5th minute and the second span of time comprises the 6th-10th minute. The result of the first span of time is represented as black bars and the result of the second span of time is represented as white bars with black longitudinal stripes.
# [4] = system: hippocampal CA1 mouse cells; assay: Ex vivo patch-clamp electrophysiological recordings on hippocampal CA1 pyramidal cells; format: cell-based, mice; settings: for number of action potentials vs control K: current intensities of 40 to 440 pA
# Procedure: The patch-clamp method was carried out on whole CA1 pyramidal cells from “acute” (freshly prepared) hippocampus slices of four-to-six-week-old male mice in order to measure the effects of FSE-20 on neuronal excitability.
# Shown are the action potentials of the control K as well as those of the cells treated with FSE-20.
# Depicted in FIG. 5B is a graphic illustration in which the number of action potentials is shown in relation to the injected current intensity (pA) of the differently treated cells and of the control group K.
compound,measurement,setting,value
"CCCCCCCCCCCCCCCCCCCCOC(=O)/C=C/c1ccc(O)cc1 [4OH-ZSE-20, icosyl (2E)-3-(4-hydroxyphenyl)prop-2-enoate]",improvement in learning capability compared with FSE-20 (summary statement),[1],"weaker, but still marked activity"
same,learning and memory capability P vs control K (Example 2),"[1]; larvae, 5 days",slight increase
"CCCCCCCCCCCCCCCCCCCCOC(=O)CCc1ccc(O)c(OC)c1 [DH-FSE-20, icosyl 3-(4-hydroxy-3-methoxyphenyl)propanoate]",improvement in learning capability compared with FSE-20 (summary statement),[1],less pronounced
same,learning and memory capability P vs control K (Example 2),"[1]; larvae, 5 days",increases learning and memory
"CCCCCCCCOC(=O)/C=C/c1ccc(O)c(OC)c1 [FSE-8, octyl (2E)-3-(4-hydroxy-3-methoxyphenyl)prop-2-enoate]",improvement in learning capability compared with FSE-20 (summary statement),[1],less pronounced
same,learning and memory capability P vs control K (Example 2),"[1]; larvae, 5 days",increases the learning and memory capability P
"CCCCCCCCCCCCOC(=O)/C=C/c1ccc(O)c(OC)c1 [FSE-12, dodecyl (2E)-3-(4-hydroxy-3-methoxyphenyl)prop-2-enoate]",learning and memory capability P vs control K (Example 2),"[1]; larvae, 5 days",slight increase
"CCCCCCCCCCCCCCCCOC(=O)/C=C/c1ccc(O)c(OC)c1 [FSE-16, hexadecyl (2E)-3-(4-hydroxy-3-methoxyphenyl)prop-2-enoate]",improvement in learning capability compared with FSE-20 (summary statement),[1],less pronounced
same,learning and memory capability P vs control K (Example 2),"[1]; larvae, 5 days",increases learning
"CCCCCCCCCCCCCCCCCCCCOC(=O)/C=C/c1ccc(O)c(OC)c1 [FSE-20, icosyl (2E)-3-(4-hydroxy-3-methoxyphenyl)prop-2-enoate]",learning and memory capability of larvae (summary statement),[1]; added to feed of larvae,significantly in a dose-dependent manner
same,concentration at which an effect is seen,[1]; in feed mash,700 nM
same,improvement of learning and memory capability P,"[1]; larvae, 700 nM in feed mash, 5 days",approximately 50%
same,learning and memory capability P vs control K (Example 2),"[1]; larvae, 5 days",marked increase
same,learning and memory capability P (performance index) vs control K,"[1]; larvae, 7.1×10^−8, 7.1×10^−7 or 7.1×10^−6 M in feed mash, 5 days",increased
same,learning and memory capability P,"[1]; larvae, very high concentrations starting at 7 μM in feed mash, 5 days",declines once again
same,learning and memory capability P,"[1]; larvae, very low concentration, 70 nM in feed mash, 5 days",increase in learning tendency
same,improvement of learning and memory capability P in older animals,"[2]; 7.1×10^−7 M in feed, tested 15 days after hatching",approximately 50%
same,learning capability of older flies (summary statement),[2]; FSE-20 in feed,doubled
same,fear behavior (freezing) F in second half (6th-10th minute) compared with first half (1st-5th minute),"[3]; mice 3-4 months, second test B-2, conditioned environment",just as strongly pronounced
same,memory stability vs control,[3]; mice,more stable memory over time
same,number of action potentials vs control K,[4]; 1 μM,increased significantly
same,number of action potentials vs control K,[4]; 4 μM,increased significantly
same,excitability of pyramidal CA1 hippocampus cells,"[4]; ex vivo, summary statement",increases in a dose-dependent manner
